Reference: patent publication US8623414B2, “Compositions comprising a lipid and copolymer of styrene and maleic acid” (Malvren Cosmeceutics Limited, priority 2005, dated 2014)
Each block holds one compound with its values, some of them ahead of it. Where a SMILES comes first, the peptide text is derived from it. The star is where a group is joined. Palmitoyl = CCCCCCCCCCCCCCCC(=O)*

Tests used:
[1] = Example 5 Supplemental: turbidity meter (Nephla) of compositions with active agents over time (Table 12a); assay type: physicochemical; settings: SMA 3000P (hydrolysed) 2.5%, lipid 90H 1%; on clarity: key: Clear: categorised as being clear if there was no significant visible opacity to the naked eye; Cloudy: categorised as cloudy if there was significant visible disruption to the passage of light
Protocol: The turbidity meter was calibrated prior to use, with two known standards (0 and 40 FNU).
After the final stage of sample preparation (i.e. adjustment of the pH to physiological) samples were course filtered through Whatman 541 filter paper to remove any gross matter which could interfere with turbidity measurement. Immediately after filtration the first turbidity measurement was taken. Mixtures were stored at 4° C. following the initial measurement, and remeasured at later time points.

[2] = Example 7: cosmetic gel preparation of Asc-P, clarity at pH 7; assay type: physicochemical; settings: Solution A (hydrolysed SMA3000P 2.5%, 90H 1.0%, S-LPC 0.01%, Asc-P 0.1%, Phenonip 0.1%) mixed 1:1 with xanthan gum/carbopol gel
Protocol: The emulsion was then homogenised for 10 minutes.
Preservative was then added to the solution and the pH adjusted.
Xanthan gum and carbopol were mixed with water and stirred until a uniform gel was formed. The pH was then adjusted to 7.
Solution A and Solution B were then mixed in equal volumes to produce the final preparation.

[3] = Example 5: compositions of the invention to solubilise exemplary active agents (visual clarity, pH on clearing, clarity at pH 7); settings: SMA 3000HNa 2.5%, 90H 1%, S LPC 0.01%
Protocol: A stock emulsion of cosurfactant, membrane forming lipid and active was prepared at double the desired final concentration. Cosurfactant was dissolved in water while heating (approximately 50° C.) and stirring. Lipid was then added, followed by continued stirring and heating until a uniform emulsion is formed. The emulsion was then homogenised for 10 minutes. After re-heating to approximately 50° C. the active component was added slowly under stirring until a uniform emulsion was present. The final emulsion was then homogenised for a further 10 minutes.
Stock solutions were prepared by mixing of the hydrolysed polymer with the appropriate volume of water.
Polymer/lipid mixtures were then prepared by the dropwise addition of the lipid containing emulsion to an equal volume of polymer solution while stirring and heating to approximately 50° C.
The pH of the mixtures was adjusted to determine the critical pH level at which macromolecular assemblies formed, and whether the resulting clear and colourless solution would remain at physiological pH.
Percentage values specified in this experiment refer to the weight of the component in question as a proportion of the total weight of the composition.
Mixtures were visually examined to determine whether the polymer/lipid assemblies had solubilised the active agent in the aqueous medium. The clarity of a mixture was categorised as being clear if there was no significant visible opacity to the naked eye, whereas a mixture was categorised as cloudy if there was significant visible disruption to the passage of light.

[4] = S LPC 0.01%, active agent 0.25%
[5] = SL 30-3 0.05% (S LPC content 0.01%), active agent 0.80%

Clarity ([1]; S LPC 0.01%, active agent 0.1%): Clear | pH on clearing ([1]; S LPC 0.01%, active agent 0.1%): 8.81 | Turbidity at pH 7 (FNU) ([1]; S LPC 0.01%, active agent 0.1%): 24.50 FNU
Compound: CCCCC(CC)COC(=O)C=Cc1ccc(OC)cc1 (stereo not drawn) [Eusolex 2292, Octyl methoxycinimate]

Clarity ([1]; S LPC 0.01%, active agent 0.1%): Clear | pH on clearing ([1]; S LPC 0.01%, active agent 0.1%): 8.96 | Turbidity at pH 7 (FNU) ([1]; S LPC 0.01%, active agent 0.1%): 31.00 FNU
Compound: COc1ccc(C(=O)c2ccccc2)c(O)c1 [Eusolex 4360, Benzophenone-3]

Appearance of cosmetic preparation [2]: clear and colourless aqueous gel | Clarity at pH 7 ([3]; active agent 0.1%): Clear | pH on clearing ([3]; active agent 0.1%): 8.87
Compound: CCCCCCCCCCCCCCCC(=O)OC[C@H](O)[C@H]1OC(=O)C(O)=C1O [Asc-P, L-ascorbyl palmitate]

Clarity ([3]; active agent 0.25%): Clear | Clarity at pH 7 ([3]; active agent 0.25%): Clear | pH on clearing ([3]; active agent 0.25%): 8.95
Compound: CCCCCCCCCCCCCCCC(=O)OC/C=C(C)/C=C/C=C(C)/C=C/C1=C(C)CCCC1(C)C [Ret-P, Retinol palmitate]

Compound: C[C@@H]1[C@H](O)[C@@H](C)/C=C/C=C/CC/C=C/C=C/C=C/C=C/C(O[C@H]2O[C@H](C)[C@@H](O)[C@H](N)[C@@H]2O)CC2O[C@](O)(CC(O)C(O)CCC(O)CC(O)CC(O)CC(=O)O[C@H]1C)CC(O)C2C(=O)O (stereo partly drawn) [Nystatin, reference compound]
Clarity ([1]; S LPC 0.01%, active agent 0.1%): Clear | pH on clearing ([1]; S LPC 0.01%, active agent 0.1%): 8.85 | Turbidity at pH 7 (FNU) ([1]; S LPC 0.01%, active agent 0.1%): 6.93 FNU

Clarity ([3]; active agent 0.1%): Clear | Clarity at pH 7 ([3]; active agent 0.1%): Clear | pH on clearing ([3]; active agent 0.1%): 8.89
Compound: Ceramide IIIA

Clarity [1, 4]: Clear | pH on clearing [1, 4]: 8.84 | Turbidity at pH 7 (FNU) [1, 4]: 28.9 FNU
Compound: CC(C)[C@@H]1CC[C@@H](C)C[C@H]1OC(=O)C1CCC(=O)N1 (stereo partly drawn) [Questice]

Clarity ([1]; S LPC 0.01%, active agent 0.1%): Clear | pH on clearing ([1]; S LPC 0.01%, active agent 0.1%): 8.78 | Turbidity at pH 7 (FNU) ([1]; S LPC 0.01%, active agent 0.1%): 5.91 FNU
Compound: Clc1ccccc1C(c1ccccc1)(c1ccccc1)n1ccnc1 [Clot., Clotrimazole, reference compound]

Clarity at pH 7 ([3]; active agent 0.3%): Clear
Compound: acetyl hexapeptide 3 [Argir]

Clarity [1, 4]: Clear | pH on clearing [1, 4]: 8.92 | Turbidity at pH 7 (FNU) [1, 4]: 39.6 FNU
Compound: CC(=O)OCC(=O)[C@@]1(O)CC[C@H]2[C@@H]3CCC4=CC(=O)CC[C@]4(C)[C@H]3[C@@H](O)C[C@@]21C [HC A, Hydrocortisone Acetate, reference compound]

Clarity [1, 5]: Clear | Turbidity at pH 7 (FNU) [1, 5]: 3.52 FNU
Compound: Cc1cc(CC(C)CC(C)(C)C)n(O)c(=O)c1.NCCO (stereo not drawn) [Octopirox, Piroctone olamine]

Clarity [1, 4]: Clear | pH on clearing [1, 4]: 8.97 | Turbidity at pH 7 (FNU) [1, 4]: 9.09 FNU
Compound: C[C@]12CCC(=O)C=C1CC[C@@H]1[C@@H]2[C@@H](O)C[C@@]2(C)[C@H]1CC[C@]2(O)C(=O)CO [HC, Hydrocortisone, reference compound]

Clarity ([3]; active agent 0.5%): Clear | Clarity at pH 7 ([3]; active agent 0.5%): Clear | pH on clearing ([3]; active agent 0.5%): 8.86
Compound: CCCCCCCCCCCCCCCC(=O)N[C@@H](CCCCN)C(=O)N[C@H](C(=O)N[C@H](C(=O)N[C@@H](CCCCN)C(=O)N[C@@H](CO)C(=O)O)[C@@H](C)O)[C@@H](C)O [Mat, palmityl-KTTKS] (Palmitoyl-KTTKS-OH; C-terminus assumed)

Clarity ([1]; S LPC 0.01%, active agent 0.1%): Clear | pH on clearing ([1]; S LPC 0.01%, active agent 0.1%): 8.86 | Turbidity at pH 7 (FNU) ([1]; S LPC 0.01%, active agent 0.1%): 33.1 FNU
Compound: CCCC(=O)O[C@]1(C(=O)CO)CC[C@H]2[C@@H]3CCC4=CC(=O)CC[C@]4(C)[C@H]3[C@@H](O)C[C@@]21C [HC But]

Clarity ([3]; active agent 0.1%): Clear | Clarity at pH 7 ([3]; active agent 0.1%): Clear | pH on clearing ([3]; active agent 0.1%): 8.95
Compound: CC(C)CCC[C@@H](C)[C@H]1CC[C@H]2[C@@H]3CC=C4C[C@@H](O)CC[C@]4(C)[C@H]3CC[C@]12C [Chol, Cholesterol]

Compound: CC(C)CCC[C@@H](C)[C@H]1CC[C@H]2C3=CC=C4C[C@@H](O)CC[C@]4(C)[C@H]3CC[C@]12C [7-DHC, 7-Dehydrocholesterol]
Clarity ([1]; S LPC 0.01%, active agent 0.1%): Clear | pH on clearing ([1]; S LPC 0.01%, active agent 0.1%): 8.91 | Turbidity at pH 7 (FNU) ([1]; S LPC 0.01%, active agent 0.1%): 7.28 FNU
